pEC50: −log10 of the molar value.
Columns and labels:
mu opioid receptor (MOR) [1] = target: T1, mu opioid receptor (MOR) (Homo sapiens, UniProt P35372); assay: Hit Hunter cAMP signaling assay (adenylyl cyclase inhibition), PAM mode with EC20 endomorphin-1; format: cell-based
mu opioid receptor (MOR) [2] = target: T1, mu opioid receptor (MOR); assay: PathHunter β-arrestin recruitment assay, PAM mode with EC20 endomorphin-1; format: cell-based
How it was run: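 β-Arrestin recruitment to the receptor was tracked by chemiluminescent β-galactosidase activity from complementing fragments (ED on receptor, EA on β-arrestin). Per-compound outputs were EC50 and percent maximal response.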

[3] = cAMP EC50, adenylyl cyclase inhibition
[4] = maximal response for adenylyl cyclase inhibition
[5] = maximal response for β-arrestin recruitment
[6] = β-arrestin recruitment, read-out: β-arr. EC50
[7] = adenylyl cyclase inhibition, read-out: cAMP EC50
[8] = maximal response, adenylyl cyclase inhibition
[9] = maximal response, β-arrestin recruitment

T1 sequence (P35372 whole entry): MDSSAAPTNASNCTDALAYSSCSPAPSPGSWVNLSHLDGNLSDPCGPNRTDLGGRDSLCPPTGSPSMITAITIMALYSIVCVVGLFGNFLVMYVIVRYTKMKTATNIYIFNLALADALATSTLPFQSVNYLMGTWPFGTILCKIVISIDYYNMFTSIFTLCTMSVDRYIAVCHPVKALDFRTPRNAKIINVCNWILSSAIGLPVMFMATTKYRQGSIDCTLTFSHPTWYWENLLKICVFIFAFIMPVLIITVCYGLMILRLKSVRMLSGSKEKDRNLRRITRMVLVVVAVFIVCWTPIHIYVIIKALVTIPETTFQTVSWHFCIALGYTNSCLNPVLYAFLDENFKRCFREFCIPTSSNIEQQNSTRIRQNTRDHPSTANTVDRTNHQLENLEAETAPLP

Structure (SMILES)	pEC50 (mu opioid receptor (MOR) [1]; [3])	cAMP Max. Resp. (mu opioid receptor (MOR) [1]; [4])	β-arr Max. Resp. (mu opioid receptor (MOR) [2]; [5])	pEC50 (mu opioid receptor (MOR) [2]; [6])	pEC50 (mu opioid receptor (MOR) [1]; [7])	further results
Fc1ccc(Cl)nc1N1CCCCC1c1cncnc1 (stereo not shown) [compound 382]	> 6.15	D (D represents a maximal response of < 40%)	D (D represents a maximal response of < 40%)	> 6.15		
Fc1ccc(C2CC=CCN2c2nc(Cl)ncc2F)cc1Br (stereo not shown) [compound 244]		D (D represents a maximal response of < 40%)	F (F represents a maximal response of > 60%)	> 6.15	> 6.15	
Fc1ccc(C2CCCCN2c2nc(Cl)ncc2F)cc1C(F)(F)F (single isomer, unassigned) [compound 422]	> 6.15			> 6.15		cAMP Max. Resp. (mu opioid receptor (MOR) [1]; [8]): D (D represents a maximal response of < 40%); β-arr Max. Resp. (mu opioid receptor (MOR) [2]; [9]): D (D represents a maximal response of < 40%)
Fc1ccc(C2CCCCN2Cc2cccc(Cl)n2)cc1Cl (stereo not shown) [compound 1]	> 6.15	F (F represents a maximal response of > 60%)	F (F represents a maximal response of > 60%)	> 6.15		EC50 (mu opioid receptor (MOR) [1]; cAMP EC50 (nM), adenylyl cyclase inhibition, Table 3): 186 nM; cAMP Max Resp. (mu opioid receptor (MOR) [1]; maximal response for adenylyl cyclase inhibition, Table 3): 63; β-arr. Max Resp. (mu opioid receptor (MOR) [2]; maximal response for β-arrestin recruitment, Table 3): 138; pEC50 (mu opioid receptor (MOR) [2]; β-arrestin recruitment, Table 3, read-out: β-arr. EC50): 6.24
Cc1ccc(C2CCCCN2S(=O)(=O)c2ccc(Cl)cc2)cc1Br (racemic) [compound 70]		E (E represents a maximal response of 40-60%)	F (F represents a maximal response of > 60%)	< 5.68	< 5.68	
O=S(=O)(c1ccc(Cl)cc1)N1CCCCC1c1ccc(Br)c(F)c1 (racemic) [compound 71]		D (D represents a maximal response of < 40%)	F (F represents a maximal response of > 60%)	< 5.68	< 5.68	cAMP Max Resp. (mu opioid receptor (MOR) [1]; adenylyl cyclase inhibition, activity switching by MOR PAMs): D (D represents a maximal response of < 40%); pEC50 (mu opioid receptor (MOR) [1]; adenylyl cyclase inhibition, activity switching by MOR PAMs, read-out: cAMP EC50): < 5.68; β-arrestin Max Response (mu opioid receptor (MOR) [2]; β-arrestin recruitment, activity switching by MOR PAMs): F (F represents a maximal response of >60%); pEC50 (mu opioid receptor (MOR) [2]; β-arrestin recruitment, activity switching by MOR PAMs, read-out: β-arrestin EC50): < 5.68
COc1cccc(N2CCCCC2c2cccc(C(F)(F)F)n2)c1 (stereo not shown) [compound 455]				< 5.68	< 5.68	cAMP Max. Resp. (mu opioid receptor (MOR) [1]; [8]): D (D represents a maximal response of < 40%); β-arr Max. Resp. (mu opioid receptor (MOR) [2]; [9]): E (E represents a maximal response of 40-60%)
O[C@H]1CC[C@H](c2cc(F)cc(C(F)(F)F)c2)N(c2nc(Cl)ncc2F)C1 (relative stereo) [compound 310]		F (F represents a maximal response of > 60%)	F (F represents a maximal response of > 60%)	< 5.68	5.68 to 6.15	
O=S(=O)(c1ccc(Cl)cc1)N1CCCCC1c1ccc(F)c(Cl)c1 (racemic) [compound 52]		F (F represents a maximal response of > 60%)	F (F represents a maximal response of > 60%)	> 6.15	> 6.15	
Fc1cnc(Cl)nc1N1CCCCC1c1cccc2ncnn12 (stereo not shown) [compound 389]	> 6.15	D (D represents a maximal response of < 40%)	D (D represents a maximal response of < 40%)	> 6.15		
O=S(=O)(c1cc(F)ccc1F)N1CCCCC1c1cccc(C(F)(F)F)c1 (stereo not shown) [Compound 26]		D (D represents a maximal response of < 40%)	F (F represents a maximal response of > 60%)	< 5.68	< 5.68	
CC1CCN(S(=O)(=O)c2ccc(Cl)cc2)C1c1ccc2c(c1)CCO2 (mixture of isomers) [Compound 91]		D (D represents a maximal response of < 40%)	F (F represents a maximal response of > 60%)	< 5.68	< 5.68	
COc1ccc(C2CC(C(F)(F)F)CN2S(=O)(=O)c2ccc(Cl)cc2)cc1Br (single isomer, unassigned) [Compound 120]		F (F represents a maximal response of > 60%)	F (F represents a maximal response of > 60%)	< 5.68	< 5.68	
Fc1c(N2CCCCC2c2cccc(C(F)(F)F)c2)ccnc1Cl (stereo not shown) [compound 402]	> 6.15	D (D represents a maximal response of < 40%)	D (D represents a maximal response of < 40%)	> 6.15		
COc1ccc(C2C(F)CCCN2c2nc(Cl)ncc2F)cc1Br (stereo not shown) [compound 212]	< 5.68	E (E represents a maximal response of 40-60%)	F (F represents a maximal response of > 60%)	< 5.68		
Fc1cnc(Cl)nc1N1CCCCC1c1ccc(OC(F)(F)F)c(Br)c1 (stereo not shown) [compound 126]	> 6.15	E (E represents a maximal response of 40-60%)	F (F represents a maximal response of > 60%)	> 6.15		
Fc1ccc(C2CCCCN2Cc2cc(Cl)ccn2)cc1Cl (stereo not shown) [compound 145]	5.68 to 6.15	E (E represents a maximal response of 40-60%)	F (F represents a maximal response of > 60%)	< 5.68		
